Here are results for two molecules from patent US11000495B2, “Topical diclofenac sodium compositions” (Novartis Consumer Health S.A., priority 2014, dated 2021).

Counter-ions that a name gives are not always drawn.

For data set [1] the following is noted: cited from earlier work.
Data set [2] in a line: Solubility of diclofenac sodium 2 wt % in IPA/PG/water solvent mixtures by UV absorbance. The data set is classed as physicochemical. Conditions: 2% diclofenac sodium in IPA/PG/water, 25° C., systems shown as circles in FIG. 1. On the procedure: FIG. 1 is a ternary diagram of the solubility of diclofenac sodium, 2 wt %, at 25° C., as determined by UV absorbance, in solvent mixtures comprising isopropyl alcohol (bottom axis), propylene glycol (left axis), and water (right axis) in varying amounts. The data points represent solvent mixtures which are found to be at or above (circles), or below (squares), the target (i.e. 2%) solubility. FIG. 1 illustrates solubility studies of such solvent systems comprising 2% diclofenac sodium in isopropyl alcohol (IPA), propylene glycol (PG) and water. […] (Incomplete solubilization is represented by squares.)

`O=C(O)Cc1ccccc1Nc1c(Cl)cccc1Cl` [Acidic diclofenac, diclofenac]: the water solubility result in data set [1] (acid form, Fini et al.) is recorded as “very low”.

Consider `O=C(O)Cc1ccccc1Nc1c(Cl)cccc1Cl` [diclofenac sodium, 2-[(2,6-dichloro-phenyl)amino]benzeneacetic acid, (mono) sodium salt], for which the “solubility of the salt in solvent systems” value in data set [2] is recorded as “Complete solubility”. Moreover, in data set [1] (anhydrous form, Llinas et al.), the kinetic solubility was 40 ± 5 µg/mL.
